Data as given in patent US20100099561A1, “HETEROBICYCLIC ALKYLTHIO-BRIDGED ISOXAZOLINES” (E.I. DU PONT DE NEMOURS AND COMPANY, priority 2008, published 2010).

Experiments:
Assay type in all cases: in vivo
corn (Zea mays) = assay: Test B preemergence, corn; settings: scale 0 to 100
From the text: (§1) Seeds of plant species selected from blackgrass (Alopecurus myosuroides), downy bromegrass (Bromus tectorum), green foxtail (Setaria viridis), Italian ryegrass (Lolium multiflorum), wheat (Triticum aestivum), wild oat (Avena fatua), catchweed bedstraw (Galium aparine), bermudagrass (Cynodon dactylon), Surinam grass (Brachiaria decumbens), cocklebur (Xanthium strumarium), corn (Zea mays), large crabgrass (Digitaria sanguinalis), woolly cupgrass (Eriochloa villosa), giant foxtail (Setaria faberii), goosegrass (Eleusine indica), johnsongrass (Sorghum halepense), kochia (Kochia scoparia), lambsquarters (Chenopodium album), morningglory (Ipomoea coccinea), nightshade (eastern black nightshade, Solanum ptycanthum), yellow nutsedge (Cyperus esculentus), pigweed (Amaranthus retroflexus), ragweed (common ragweed, Ambrosia elatior), soybean (Glycine max), sunflower (common oilseed sunflower, Helianthus annuus), Russian thistle (Salsola kali), and velvetleaf (Abutilon theophrasti) were planted into a blend of loam soil and sand and treated preemergence with test compounds formulated in a non-phytotoxic solvent mixture which included a surfactant. Treated plants and controls were maintained in a greenhouse for 13 to 15 days, after which time all species were compared to controls and visually evaluated. Plant response ratings, summarized in Table B, are based on a scale of 0 to 100 where 0 is no effect and 100 is complete control. A dash (-) response means no test result.

[1] = system: blackgrass (Alopecurus myosuroides); assay: Test B preemergence, blackgrass; settings: scale 0 to 100
From the text: as §1

[2] = system: large crabgrass (Digitaria sanguinalis); assay: Test A postemergence, large crabgrass; settings: 0 to 100 scale (0 no effect, 100 complete control)
Method in brief: (§2)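 Each compound, in a non-phytotoxic solvent mixture with surfactant, is applied to soil at planting and, concurrently, to young one- to two-leaf plants. After approximately ten greenhouse days, visual response is rated 0 (no effect) to 100 (complete control) against untreated controls.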

[3] = system: wheat (Triticum aestivum); assay: Test B preemergence, wheat; settings: Preemergence, scale 0 to 100
From the text: as §1

[4] = system: goosegrass (Eleusine indica); assay: Test B preemergence, goosegrass; settings: scale 0 to 100
From the text: as §1

[5] = system: bermudagrass (Cynodon dactylon); assay: Test B preemergence, bermudagrass; settings: scale 0 to 100
From the text: as §1

[6] = system: velvetleaf (Abutilon theophrasti); assay: Test A postemergence, velvetleaf; settings: 0 to 100 scale (0 no effect, 100 complete control)
Method in brief: as §2

[7] = system: woolly cupgrass (Eriochloa villosa); assay: Test B preemergence, woolly cupgrass; settings: scale 0 to 100
From the text: as §1

[8] = system: morningglory (Ipomoea spp.); assay: Test A postemergence, morningglory; settings: 0 to 100 scale (0 no effect, 100 complete control)
Method in brief: as §2

rice (Oryza sativa) = assay: Test B flooded paddy test, rice; settings: Flood, scale 0 to 100
Method in brief: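 Rice, umbrella sedge, ducksalad and barnyardgrass at 2-leaf stage; pots flooded to 3 cm, compounds applied into paddy water, depth held throughout. Greenhouse 13 to 15 days, then visual rating vs untreated controls on 0–100 scale (0 no effect, 100 complete control); dash means no test result.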

[9] = system: wheat (Triticum aestivum); assay: Test A postemergence, wheat; settings: 0 to 100 scale (0 no effect, 100 complete control)
Method in brief: as §2

[10] = system: ragweed (common ragweed, Ambrosia elatior); assay: Test B preemergence, ragweed; settings: scale 0 to 100
From the text: as §1

[11] = system: Italian ryegrass (Lolium multiflorum); assay: Test B preemergence, Italian ryegrass; settings: Preemergence, scale 0 to 100
From the text: as §1

[12] = system: pigweed (Amaranthus retroflexus); assay: Test A postemergence, pigweed; settings: 0 to 100 scale (0 no effect, 100 complete control)
Method in brief: as §2

[13] = system: morningglory (Ipomoea spp.); assay: Test A preemergence, morningglory; settings: 0 to 100 scale (0 no effect, 100 complete control)
Method in brief: as §2

[14] = system: lambsquarters (Chenopodium album); assay: Test B preemergence, lambsquarters; settings: scale 0 to 100
From the text: as §1

[15] = system: morningglory (Ipomoea coccinea); assay: Test B preemergence, morningglory; settings: scale 0 to 100
From the text: as §1

[16] = system: large crabgrass (Digitaria sanguinalis); assay: Test B preemergence, large crabgrass; settings: scale 0 to 100
From the text: as §1

[17] = system: wheat (Triticum aestivum); assay: Test A preemergence, wheat; settings: 0 to 100 scale (0 no effect, 100 complete control)
Method in brief: as §2

CC1(C)CC(S(=O)(=O)Cc2c(C(F)(F)F)nc3n(c2=O)CCCC3)=NO1 [Compound 8, 3-[[(4,5-dihydro-5,5-dimethyl-3-isoxazolyl)sulfonyl]methyl]-6,7,8,9-tetrahydro-2-(trifluoromethyl)-4H-pyrido[1,2-α]pyrimidin-4-one]
Plant response rating, Corn (corn (Zea mays); 16 g ai/ha): 10
Plant response rating, Corn (corn (Zea mays); 31 g ai/ha): 15
Plant response rating, Corn (corn (Zea mays); 62 g ai/ha): 45
Plant response rating, Corn (corn (Zea mays); 125 g ai/ha): 55
Plant response rating, Blackgrass ([1]; 16 g ai/ha): 0
Plant response rating, Blackgrass ([1]; 31 g ai/ha): 90
Plant response rating, Blackgrass ([1]; 62 g ai/ha): 90
Plant response rating, Blackgrass ([1]; 125 g ai/ha): 100
Plant response rating, Crabgrass, Large ([2]; 125 g ai/ha): 60
Plant response rating, Crabgrass, Large ([2]; 500 g ai/ha): 90
Plant response rating, Wheat ([3]; 16 g ai/ha): 0
Plant response rating, Wheat ([3]; 31 g ai/ha): 0
Plant response rating, Wheat ([3]; 62 g ai/ha): 0
Plant response rating, Wheat ([3]; 125 g ai/ha): 40
Plant response rating, Goosegrass ([4]; 16 g ai/ha): 98
Plant response rating, Goosegrass ([4]; 31 g ai/ha): 98
Plant response rating, Goosegrass ([4]; 62 g ai/ha): 100
Plant response rating, Goosegrass ([4]; 125 g ai/ha): 100
Plant response rating, Bermudagrass ([5]; 16 g ai/ha): 100
Plant response rating, Bermudagrass ([5]; 31 g ai/ha): 100
Plant response rating, Bermudagrass ([5]; 62 g ai/ha): 100
Plant response rating, Bermudagrass ([5]; 125 g ai/ha): 100
Plant response rating, Velvetleaf ([6]; 125 g ai/ha): 50
Plant response rating, Velvetleaf ([6]; 500 g ai/ha): 70
Plant response rating, Cupgrass, Woolly ([7]; 16 g ai/ha): 85
Plant response rating, Cupgrass, Woolly ([7]; 31 g ai/ha): 95
Plant response rating, Cupgrass, Woolly ([7]; 62 g ai/ha): 95
Plant response rating, Cupgrass, Woolly ([7]; 125 g ai/ha): 100
Plant response rating, Morningglory ([8]; 125 g ai/ha): 60
Plant response rating, Morningglory ([8]; 500 g ai/ha): 90
Plant response rating, Rice (rice (Oryza sativa); 62 g ai/ha): 0
Plant response rating, Rice (rice (Oryza sativa); 250 g ai/ha): 0
Plant response rating, Wheat ([9]; 125 g ai/ha): 20
Plant response rating, Wheat ([9]; 500 g ai/ha): 60
Plant response rating, Ragweed ([10]; 16 g ai/ha): 0
Plant response rating, Ragweed ([10]; 31 g ai/ha): 0
Plant response rating, Ragweed ([10]; 62 g ai/ha): 25
Plant response rating, Ragweed ([10]; 125 g ai/ha): 60
Plant response rating, Ryegrass, Italian ([11]; 16 g ai/ha): 0
Plant response rating, Ryegrass, Italian ([11]; 31 g ai/ha): 30
Plant response rating, Ryegrass, Italian ([11]; 62 g ai/ha): 35
Plant response rating, Ryegrass, Italian ([11]; 125 g ai/ha): 100
Plant response rating, Pigweed ([12]; 125 g ai/ha): 10
Plant response rating, Pigweed ([12]; 500 g ai/ha): 60
Plant response rating, Morningglory ([13]; 125 g ai/ha): 20
Plant response rating, Morningglory ([13]; 500 g ai/ha): 90
Plant response rating, Lambsquarters ([14]; 16 g ai/ha): 55
Plant response rating, Lambsquarters ([14]; 31 g ai/ha): 98
Plant response rating, Lambsquarters ([14]; 62 g ai/ha): 100
Plant response rating, Lambsquarters ([14]; 125 g ai/ha): 100
Plant response rating, Morningglory ([15]; 16 g ai/ha): 0
Plant response rating, Morningglory ([15]; 31 g ai/ha): 0
Plant response rating, Morningglory ([15]; 62 g ai/ha): 20
Plant response rating, Morningglory ([15]; 125 g ai/ha): 80
Plant response rating, Crabgrass, Large ([16]; 16 g ai/ha): 95
Plant response rating, Crabgrass, Large ([16]; 31 g ai/ha): 95
Plant response rating, Crabgrass, Large ([16]; 62 g ai/ha): 100
Plant response rating, Crabgrass, Large ([16]; 125 g ai/ha): 100
Plant response rating, Wheat ([17]; 125 g ai/ha): 0
Plant response rating, Wheat ([17]; 500 g ai/ha): 60
